Test results published in US20170240535A1, “HDAC1/2 INHIBITORS FOR THE TREATMENT OF NEURODEGENERATIVE AND/OR COGNITIVE DISORDERS” (Regenacy Pharmaceuticals, LLC, priority 2016, published 2017).

Key:
HDAC2 = target: T1, HDAC2 (Homo sapiens, UniProt Q92769); assay: HDAC enzyme assay, HDAC2; type: biochemical; details: enzyme and compound incubated 24 hours at room temperature
T1 construct: purchased BPS Biosciences
Procedure: (§1) Compounds for testing were diluted in DMSO to 50 fold the final concentration and a ten point three fold dilution series was made. The compounds were diluted in assay buffer (50 mM HEPES, pH 7.4, 100 mM KCl, 0.001% Tween-20, 0.05% BSA, 20 μM TCEP) to 6 fold their final concentration. The HDAC enzymes (purchased from BPS Biosciences) were diluted to 1.5 fold their final concentration in assay buffer. The tripeptide substrate and trypsin at 0.05 μM final concentration were diluted in assay buffer at 6 fold their final concentration. The final enzyme concentrations used in these assays were 3.3 ng/ml (HDAC1), 0.2 ng/ml (HDAC2) and 0.08 ng/ml (HDAC3). The final substrate concentrations used were 16 μM (HDAC1), 10 μM (HDAC2) and 17 μM (HDAC3). Five μl of compound and 20 μl of enzyme were added to wells of a black, opaque 384 well plate in duplicate. Enzyme and compound were incubated together at room temperature for 24 hours. Five μl of substrate was added to each well, the plate was shaken for 60 seconds and placed into a Victor 2 microtiter plate reader. The development of fluorescence was monitored for 60 min and the linear rate of the reaction was calculated. The IC50 was determined using Graph Pad Prism by a four parameter curve fit.

HDAC3 = target: T2, HDAC3 (Homo sapiens, UniProt O15379); assay: HDAC enzyme assay, HDAC3; type: biochemical; details: enzyme and compound incubated 24 hours at room temperature
T2 construct: purchased BPS Biosciences
Procedure: as §1

[1] = Pharmacokinetics of Compound 1 in plasma and brain after IP and PO administration (discrete PK); type: in vivo; details: male C57BL/6 mice; for Kp / Cmax / Tmax / half-life / AUC(0-inf) / AUC(0-t): mouse; for Kp: brain/plasma, read-out: AUCbrain/AUCplasma; for half-life: read-out: Terminal t1/2 (converted)
Procedure: Male C57Bl/6 mice were fasted overnight. Compound 1 was dissolved in 20% HydroxyPropyl-β-Cyclodextran in water. Fifteen animals per experimental arm were dosed by intraperitoneal injection or by oral gavage. Blood was collected via retro orbital puncture into K2EDTA tubes at 5 minutes, 15 minutes, 30 minutes, 1 hour, 2 hours, 4 hours, 8 hours and 24 hours after dosing. The blood was centrifuged at 2000 g for 5 minutes at 4° C. to obtain plasma. The plasma was extracted with acetonitrile and the level of compound was analyzed by LC/MS/MS. The level of compound in plasma was calculated from a standard curve in mouse plasma. For brain levels, animals were sacrificed at 15 minutes, 1 hour, 4 hours, 8 hours and 24 hours. Brains were removed and homogenized in acetonitrile and extracted. The level of compound in brain was calculated from a standard curve in mouse brain tissue. The maximum concentration, half-life and area under the curve were calculated using WinNonLin software. The ratio of area under the curve for plasma and brain samples was calculated to produce the brain/plasma ratio.

[2] = Pharmacokinetics in plasma and brain after IV administration; type: in vivo; details: IV 1 mg/kg, male C57BL/6 mice
Procedure: Male C57Bl/6 mice were fasted overnight. Compounds of the invention were dissolved in dimethyl acetamide at 10 times the final concentration, then Solutol HS 15 (BASF) was added to a final concentration of 10%. Finally 80% saline was added and vortexed to achieve a clear solution. Fifteen animals were injected via the tail vein with 1 mg/kg compound. Blood was collected via retro orbital puncture into K2EDTA tubes at 5 minutes, 15 minutes, 30 minutes, 1 hour, 2 hours, 4 hours, 8 hours and 24 hours after dosing. The blood was centrifuged at 2000 g for 5 minutes at 4° C. to obtain plasma. The plasma was extracted with acetonitrile and the level of compound was analyzed by LC/MS/MS. The level of compound in plasma was calculated from a standard curve in mouse plasma. For brain levels, animals were sacrificed at 5 minutes, 15 minutes, 1 hour, 4 hours and 24 hours. Brains were removed and homogenized in acetonitrile and extracted. The level of compound in brain was calculated from a standard curve in mouse brain tissue. The IV clearance and area under the curve were calculated using WinNonLin software. The ratio of area under the curve for plasma and brain samples was calculated to produce the brain/plasma ratio.

aged mice = assay: Morris Water Maze, young and aged mice; type: in vivo
Procedure: The ability of HDAC1/2 inhibitor Compound 1 to improve cognitive deficits in aged mice was tested by InterVivo Solutions (Toronto, Canada). Young (3 months old) and aged (18 months old) mice were compared in a Morris Water Maze to measure differences in learning and memory.
Mice were first placed in a pool of water and trained to swim to a visible flagged platform (the cued task). The mice received 3 trails per day for 5 days and the time it took for the mice to find the platform was timed. Young mice and aged mice performed equally well at this task, indicating there was no difference in swimming speed between the two cohorts of mice.
Next, mice were trained in a place task, in which the platform is submerged and hidden with flags to indicate the fixed location of the platform. The mice were trained for 4 days with 3 trials per day.

[3] = young mice (3 months old), 10 mg/kg/day, 4 weeks

T2 sequence (O15379 whole entry): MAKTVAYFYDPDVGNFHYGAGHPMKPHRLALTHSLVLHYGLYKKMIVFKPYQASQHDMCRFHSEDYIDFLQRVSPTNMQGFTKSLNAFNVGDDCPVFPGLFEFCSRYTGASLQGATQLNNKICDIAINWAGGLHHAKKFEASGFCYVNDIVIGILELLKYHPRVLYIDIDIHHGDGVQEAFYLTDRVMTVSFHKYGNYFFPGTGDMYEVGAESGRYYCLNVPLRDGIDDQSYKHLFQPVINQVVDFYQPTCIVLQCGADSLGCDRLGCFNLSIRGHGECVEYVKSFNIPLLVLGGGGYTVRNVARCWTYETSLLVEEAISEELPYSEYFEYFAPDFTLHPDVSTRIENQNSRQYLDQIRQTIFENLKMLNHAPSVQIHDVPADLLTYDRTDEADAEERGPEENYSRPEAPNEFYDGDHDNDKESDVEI
T2 sequence (Q9Y618 395-489 partner limits assumed): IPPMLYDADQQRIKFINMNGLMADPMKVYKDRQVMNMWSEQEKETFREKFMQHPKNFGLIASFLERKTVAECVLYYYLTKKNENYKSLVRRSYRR
T1 sequence (Q92769 whole entry): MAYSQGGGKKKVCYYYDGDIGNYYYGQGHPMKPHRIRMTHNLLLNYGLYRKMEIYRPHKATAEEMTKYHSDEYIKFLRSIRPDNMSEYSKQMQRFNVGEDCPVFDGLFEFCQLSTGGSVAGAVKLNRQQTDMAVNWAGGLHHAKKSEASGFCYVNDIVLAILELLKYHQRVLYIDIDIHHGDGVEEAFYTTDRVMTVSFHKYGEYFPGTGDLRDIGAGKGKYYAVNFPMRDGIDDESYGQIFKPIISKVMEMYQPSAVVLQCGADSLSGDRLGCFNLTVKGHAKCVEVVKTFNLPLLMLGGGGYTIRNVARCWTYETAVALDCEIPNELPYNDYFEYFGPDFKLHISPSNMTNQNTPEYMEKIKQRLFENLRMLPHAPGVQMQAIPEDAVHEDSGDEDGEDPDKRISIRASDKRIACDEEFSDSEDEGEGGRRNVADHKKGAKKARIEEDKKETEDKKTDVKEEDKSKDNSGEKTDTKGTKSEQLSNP

Nc1ccc(-c2ccccc2)cc1NC(=O)c1cc2ccc(N3CCNCC3)cc2cn1 [Compound 1]
IC50 (HDAC2): 13 nM
IC50 (HDAC3): 84 nM
brain penetrance (from brain/plasma AUC ratios) ([1]; IP or PO, 3 and 10 mg/kg): highly brain penetrant
AUCINF-brain ([1]; brain, IP 3 mg/kg): 21015 ng·h/g
AUClast-brain ([1]; brain, IP 3 mg/kg): 19737 ng·h/g
AUCINF-brain ([1]; brain, IP 10 mg/kg): 87609 ng·h/g
AUClast-brain ([1]; brain, IP 10 mg/kg): 78978 ng·h/g
AUCINF-brain ([1]; brain, PO 3 mg/kg): 10651 ng·h/g
AUClast-brain ([1]; brain, PO 3 mg/kg): 10019 ng·h/g
AUCINF-brain ([1]; brain, PO 10 mg/kg): 58481 ng·h/g
AUClast-brain ([1]; brain, PO 10 mg/kg): 53716 ng·h/g
Kp ([1]; IP 3 mg/kg): 15.1
Kp ([1]; IP 10 mg/kg): 15.9
Kp ([1]; PO 3 mg/kg): 6.81
Kp ([1]; PO 10 mg/kg): 10.8
Cmax ([1]; brain, IP 3 mg/kg): 1490 ng/g
Tmax ([1]; brain, IP 3 mg/kg): 4 h
half-life ([1]; brain, IP 3 mg/kg): 5.87 h
Cmax ([1]; brain, IP 10 mg/kg): 5320 ng/g
Tmax ([1]; brain, IP 10 mg/kg): 4 h
half-life ([1]; brain, IP 10 mg/kg): 7.13 h
Cmax ([1]; brain, PO 3 mg/kg): 743 ng/g
Tmax ([1]; brain, PO 3 mg/kg): 4 h
half-life ([1]; brain, PO 3 mg/kg): 5.8 h
Cmax ([1]; brain, PO 10 mg/kg): 3650 ng/g
Tmax ([1]; brain, PO 10 mg/kg): 8 h
half-life ([1]; brain, PO 10 mg/kg): 6.76 h
AUC(0-inf) ([1]; plasma, IP 3 mg/kg): 1320 ng·h/mL
AUC(0-t) ([1]; plasma, IP 3 mg/kg): 1310 ng·h/mL
Cmax ([1]; plasma, IP 3 mg/kg): 318 ng/mL
Tmax ([1]; plasma, IP 3 mg/kg): 0.5 h
half-life ([1]; plasma, IP 3 mg/kg): 3.88 h
AUC(0-inf) ([1]; plasma, IP 10 mg/kg): 5040 ng·h/mL
AUC(0-t) ([1]; plasma, IP 10 mg/kg): 4960 ng·h/mL
Cmax ([1]; plasma, IP 10 mg/kg): 1020 ng/mL
Tmax ([1]; plasma, IP 10 mg/kg): 0.25 h
half-life ([1]; plasma, IP 10 mg/kg): 4.2 h
AUC(0-inf) ([1]; plasma, PO 3 mg/kg): 1480 ng·h/mL
AUC(0-t) ([1]; plasma, PO 3 mg/kg): 1470 ng·h/mL
Cmax ([1]; plasma, PO 3 mg/kg): 135 ng/mL
Tmax ([1]; plasma, PO 3 mg/kg): 2 h
half-life ([1]; plasma, PO 3 mg/kg): 3.44 h
AUC(0-inf) ([1]; plasma, PO 10 mg/kg): 5060 ng·h/mL
AUC(0-t) ([1]; plasma, PO 10 mg/kg): 4990 ng·h/mL
Cmax ([1]; plasma, PO 10 mg/kg): 561 ng/mL
Tmax ([1]; plasma, PO 10 mg/kg): 1 h
half-life ([1]; plasma, PO 10 mg/kg): 4.08 h
brain penetrance (from brain/plasma AUC ratios) [2]: highly brain penetrant
AUCINF ([2]; brain): 12187 ng·h/g
AUClast ([2]; brain): 10505 ng·h/g
Kp ([2]; mouse, brain/plasma, read-out: AUCbrain/AUCplasma): 4.05
Cmax ([2]; mouse, brain): 675 ng/g
Tmax ([2]; mouse, brain): 1 h
half-life ([2]; mouse, brain): 9.12 h
AUC(0-inf) ([2]; mouse, plasma, PK cassette): 3010 ng·h/mL
AUC(0-t) ([2]; mouse, plasma, PK cassette): 2680 ng·h/mL
MRT inf ([2]; mouse, plasma, PK cassette): 10.4 h
clearance ([2]; mouse, plasma, PK cassette): 5.55 mL/min/kg
half-life ([2]; mouse, plasma, PK cassette): 7.8 h
Vd ([2]; mouse, plasma, PK cassette, read-out: Vss): 3.47 L/kg
learning rate in place task (aged mice; aged mice (18 months old), 10 mg/kg/day, 4 weeks): learn at a rate greater than the young untreated cohort
performance in place test vs corresponding untreated mice (aged mice; young and aged mice, 10 mg/kg/day for 4 weeks): perform better in the place test than the corresponding untreated mice
learning rate in place task (aged mice; [3]): dramatic improvement in learning rate
reduction in escape latency as compared to untreated mice, place task (aged mice; [3]): 25%
